Patent US6242440A, “Synergistic compositions comprising an oxathiazine and a benzothiophene-2-carboxamide-S,S-dioxide” (Janssen Pharmaceutica N.V., priority 1997, dated 2001)

Experiments:
Aspergillus niger = assay: poison plate assay, mycelial growth and sporulation; assay type: cell-based
Method: (§1) The efficacy of the active ingredients against mycelial growth and sporulation of Aureobasidium pullulans, Aspergillus niger, Scierophoma entoxylina, Trichodenna viride, was determined in the poison plate assay. The required concentrations of the fungicide(s) were obtained by diluting the active ingredients (I), (II) or the combination of (I) and (II) in dimethyl sulfoxide (DMSO) at 800 times the final test concentration. The stock solutions in DMSO were pipetted into Petri-dishes. Malt extract agar (3%) was added aseptically and uniform distribution was obtained by shaking. Each plate was spot inoculated with a spore or mycelial suspension. After incubation at 22° C. and 70% relative humidity for a period long enough to allow complete growth of controls, diameters of colonies were measured. Relative activities were calculated by taking the absence of fungal growth (diameter 0 mm) as 100%. From the activity of the active ingredients alone, the expected activities E were calculated by using the so-called formula of Colby: (Colby, S. R. Weeds 1967, 15: 20-22), [formula]
(§2) wherein X and Y express the relative activities obtained for each of the active ingredients. A synergistic effect can be acknowledged if the found activity exceeds calculated activity.
(§3) Equal efficacy was observed whenever complete inhibition of fungal growth occurred by one of the active ingredients (I) or (II) alone. The compound of formula (I) used in the experiment was 3-benzo[b]-thien-2-yl)-5,6-dihydro-1,4,2-oxathiazine 4-oxide, i.e. compound (1). The compound of formula (II) used in the experiment was N-cyclohexyl-benzothiophene-2-carboxamide-S,S-dioxide, i.e. compound (2).

Aureobasidium pullulans = assay: as above; assay type: cell-based
Method: as §1, §2, §3

Sclerophoma entoxylina = assay: as above; assay type: cell-based
Method: as §1, §2, §3

Trichoderma viride = assay: as above; assay type: cell-based
Method: as §1, §2, §3

Aureobasidium = assay: wood stick test (Scots Pine); assay type: cell-based, Aureobasidium pullulans; conditions: read-out: measured (relative) activity %
Method: (§4) Oven-dried wood sticks (50×12×2 mm) of Scots Pine (Pinus sylvestris) were dipped during 3 hours in a methanol solution comprising a compound of formula (I), a compound of formula (II), or a combination of a compound of formula (I) and a compound of formula (II), and allowed to dry overnight in a sterile laminar air flow. In each Petri dish one stick was placed on culture medium, PDA PS (Potato Dextrose Agar containing 60 mg penicillin and 200 mg streptomycin), previously seeded with inoculum. Two drops of fungal or spore suspension were pipetted on the upper surface of the stick The Petri dishes were incubated at 22° C. and 70% relative humidity. The test was evaluated after sufficient growth of the fungus on the control sticks. The following score system was used:
(§5) 0: sticks free of fungal growth
(§6) 1: traces of growth on the stick
(§7) 2: slight growth (5 to 25% of the surface covered)
(§8) 3 : moderate growth (25 to 50% of the surface covered)
(§9) 4: vigorous to maximum growth (more tha 50% covered)
(§10) To calculate synergism results were converted to the next artificial activities:
(§11) Yhe expected activities E were calculated by using the so-called formula of Colby: (Colby, S. R. Weeds 1967, 15: 20-22), [formula]
as §2
(§12) The compound of formula (I) used in the experiment was 3-benzo[b]-thien-2-yl)-5,6-dihydro-1,4,2-oxathiazine 4-oxide, i.e. compound (1). The compound of formula (II) used in the experiment was N-cyclohexyl-benzothiophene-2-carboxamide-S,S-dioxide, i.e. compound (2).

Aspergillus = assay: wood stick test (Scots Pine); assay type: cell-based, Aspergillus niger
Method: as §4, §5, §6, §7, §8, §9, §10, §11, §2, §12

Sclerophoma = assay: wood stick test (Scots Pine); assay type: cell-based, Sclerophoma entoxylina
Method: as §4, §5, §6, §7, §8, §9, §10, §11, §2, §12

[O-][S+]1CCON=C1c1cc2ccccc2s1 (stereo not shown) [compound (1), 3-(benzo[b]thien-2-yl)-5,6-dihydro-1,4,2-oxathiazine, 4-oxide]
activity measured (Aspergillus niger; Exp 1, 5 days, (1) 0.62 mg/l): 5% | growth (Aspergillus niger; Exp 1, 5 days, (1) 0.62 mg/l): 42 mm | activity measured (Aspergillus niger; Exp 1, 5 days, (1) 1.25 mg/l): 14% | growth (Aspergillus niger; Exp 1, 5 days, (1) 1.25 mg/l): 38 mm | activity measured (Aspergillus niger; Exp 1, 5 days, (1) 2.50 mg/l): 39% | growth (Aspergillus niger; Exp 1, 5 days, (1) 2.50 mg/l): 27 mm | activity measured (Aspergillus niger; Exp 1, 5 days, (1) 5.00 mg/l): 100% | growth (Aspergillus niger; Exp 1, 5 days, (1) 5.00 mg/l): 0 mm | activity measured (Aspergillus niger; Exp 2, 7 days, (1) 1.25 mg/l): 16% | growth (Aspergillus niger; Exp 2, 7 days, (1) 1.25 mg/l): 38 mm | activity measured (Aspergillus niger; Exp 2, 7 days, (1) 2.50 mg/l): 44% | growth (Aspergillus niger; Exp 2, 7 days, (1) 2.50 mg/l): 25 mm | activity measured (Aureobasidium pullulans; Exp 1, 5 days, (1) 0.62 mg/l): 13% | growth (Aureobasidium pullulans; Exp 1, 5 days, (1) 0.62 mg/l): 33 mm | activity measured (Aureobasidium pullulans; Exp 1, 5 days, (1) 1.25 mg/l): 32% | growth (Aureobasidium pullulans; Exp 1, 5 days, (1) 1.25 mg/l): 26 mm | activity measured (Aureobasidium pullulans; Exp 1, 5 days, (1) 2.50 mg/l): 61% | growth (Aureobasidium pullulans; Exp 1, 5 days, (1) 2.50 mg/l): 15 mm | activity measured (Aureobasidium pullulans; Exp 1, 5 days, (1) 5.00 mg/l): 87% | growth (Aureobasidium pullulans; Exp 1, 5 days, (1) 5.00 mg/l): 5 mm | activity measured (Aureobasidium pullulans; Exp 2, 7 days, (1) 1.25 mg/l): 8% | growth (Aureobasidium pullulans; Exp 2, 7 days, (1) 1.25 mg/l): 44 mm | activity measured (Aureobasidium pullulans; Exp 2, 7 days, (1) 2.50 mg/l): 21% | growth (Aureobasidium pullulans; Exp 2, 7 days, (1) 2.50 mg/l): 38 mm | activity measured (Sclerophoma entoxylina; Exp 1, 5 days, (1) 0.62 mg/l): 2% | growth (Sclerophoma entoxylina; Exp 1, 5 days, (1) 0.62 mg/l): 42 mm | activity measured (Sclerophoma entoxylina; Exp 1, 5 days, (1) 1.25 mg/l): 14% | growth (Sclerophoma entoxylina; Exp 1, 5 days, (1) 1.25 mg/l): 37 mm | activity measured (Sclerophoma entoxylina; Exp 1, 5 days, (1) 2.50 mg/l): 37% | growth (Sclerophoma entoxylina; Exp 1, 5 days, (1) 2.50 mg/l): 27 mm | activity measured (Sclerophoma entoxylina; Exp 1, 5 days, (1) 5.00 mg/l): 84% | growth (Sclerophoma entoxylina; Exp 1, 5 days, (1) 5.00 mg/l): 7 mm | activity measured (Sclerophoma entoxylina; Exp 2, 7 days, (1) 1.25 mg/l): 4% | growth (Sclerophoma entoxylina; Exp 2, 7 days, (1) 1.25 mg/l): 47 mm | activity measured (Sclerophoma entoxylina; Exp 2, 7 days, (1) 2.50 mg/l): 18% | growth (Sclerophoma entoxylina; Exp 2, 7 days, (1) 2.50 mg/l): 40 mm | activity measured (Trichoderma viride; Exp 1, 5 days, (1) 0.62 mg/l): 0% | growth (Trichoderma viride; Exp 1, 5 days, (1) 0.62 mg/l): 49 mm | activity measured (Trichoderma viride; Exp 1, 5 days, (1) 1.25 mg/l): 0% | growth (Trichoderma viride; Exp 1, 5 days, (1) 1.25 mg/l): 49 mm | activity measured (Trichoderma viride; Exp 1, 5 days, (1) 2.50 mg/l): 2% | growth (Trichoderma viride; Exp 1, 5 days, (1) 2.50 mg/l): 48 mm | activity measured (Trichoderma viride; Exp 1, 5 days, (1) 5.00 mg/l): 29% | growth (Trichoderma viride; Exp 1, 5 days, (1) 5.00 mg/l): 35 mm | activity measured (Trichoderma viride; Exp 2, 7 days, (1) 1.25 mg/l): 12% | growth (Trichoderma viride; Exp 2, 7 days, (1) 1.25 mg/l): 43 mm | activity measured (Trichoderma viride; Exp 2, 7 days, (1) 2.50 mg/l): 29% | growth (Trichoderma viride; Exp 2, 7 days, (1) 2.50 mg/l): 35 mm | activity at 200 ppm (Aureobasidium; (1) 200 ppm): 0% | activity at 400 ppm (Aureobasidium; (1) 400 ppm): 50% | % overgrown of the sticks (Aspergillus; (1) 200 ppm): 100% | stick test scores (Aspergillus; (1) 200 ppm): 4 (vigorous to maximum growth (more tha 50% covered)) | % overgrown of the sticks (Aspergillus; (1) 400 ppm): 50% | stick test scores (Aspergillus; (1) 400 ppm): 3 (moderate growth (25 to 50% of the surface covered)) | activity at 400 ppm (Aspergillus; Aspergillus, (1) 400 ppm, read-out: measured (relative) activity %): 50% | % overgrown of the sticks (Sclerophoma; (1) 200 ppm): 100% | stick test scores (Sclerophoma; (1) 200 ppm): 4 (vigorous to maximum growth (more tha 50% covered)) | % overgrown of the sticks (Sclerophoma; (1) 400 ppm): 50% | stick test scores (Sclerophoma; (1) 400 ppm): 3 (moderate growth (25 to 50% of the surface covered)) | activity at 200 ppm (Sclerophoma; Sclerophoma entoxylina, (1) 200 ppm, read-out: measured (relative) activity %): 0% | activity at 400 ppm (Sclerophoma; Sclerophoma entoxylina, (1) 400 ppm, read-out: measured (relative) activity %): 50%
